Measured values published in patent publication EP0604248A1, “Use of 5-methoxypsoralen for the treatment of AIDS” (Goupil, Jean-Jacques, priority 1992, dated 1994).

Legend:
[1] = system: VIH-1; test: Residual infectivity of treated HIV-1 on primary cultures of activated human lymphocytes (reverse transcriptase activity in supernatants, 28 days); format: cell-based; conditions: for log reduction at 10 µg/mL: Human immunodeficiency virus 1, Lymphocyte, light or radiation study
Experimental: (§1) Cette étude a été réalisée en 2 étapes : • traitements du virus VIH-1 (ou HIV-1) par le 5-méthoxypsoralène (5-MOP) et les UVA. • étude de l'infectivité résiduelle des échantillons traités à l'aide des tests sur cellules MT4 et sur lymphocytes activés.
(§2) Le virus a été traité par 10 µg/ml de 5-MOP, puis exposé aux UVA (1 à 2 Joules/cm²) de la façon suivante: • 4 ml de virus VIH-1 ont été traités avec 40 µl de 5-MOP à 1 mg/ml puis exposés aux UVA (intensité de 1,5 mW/cm²) pendant 17 minutes (échantillon PUV 10), • l'irradiation aux UVA a été faite avec la lampe PUVA 200 WALDMANN en déposant les flacons contenant le virus sur un lit de glace, afin d'éviter au maximum l'échauffement.
(§3) Les témoins pour cette expérience ont été les suivants : • le virus VIH-1 utilisé, non traité (échantillon PUV 1), • 4 ml du virus utilisé, traité uniquement par 40 µl de DMSO, afin de vérifier une éventuelle toxicité due au DMSO (échantillon PUV 2), • le virus utilisé, traité avec 10 µg/ml de 5-MOP, mais sans irradiation UVA (échantillon PUV 6), • le virus utilisé, traité uniquement par irradiation UVA pendant 17 minutes à 1,5 mW/cm² (échantillon PUV 5), • le virus utilisé, sans traitement, gardé à la température de l'expérience, pendant toute la durée du traitement, afin de vérifier la perte d'infectivité due aux conditions de la manipulation (échantillon PUV 9).
• a - Sur cellules MT4 : Des dilutions successives de chaque échantillon ont été testées en duplicata. 100 µl de chaque dilution ont été mis en contact 1 heure à 37°C avec 3.10⁵ cellules MT4 par puits de plaque COSTAR 24 puits. Les cellules ont été centrifugées afin d'éliminer le produit éventuellement toxique, puis resuspendues dans 1 ml du milieu de culture. Aux jours 3 et 6, 750 µl de surnageant ont été ôtés, remplacés par du milieu de culture frais et la concentration cellulaire ajustée à 3.10⁵ cellules par millilitre. Au jour 10, l'effet cytopathogène et la mortalité cellulaire ont été évalués par observation au microscope après coloration au bleu Trypan. Des dosages de l'activité transcriptase inverse ont été réalisés à partir des surnageants de culture conservés à chaque passage (jours 3, 6 et 10). • b - Sur lymphocytes humains activés : Un culot de 3.10⁶ lymphocytes préalablement stimulés à la PHA a été incubé avec 1 ml de chaque échantillon (de 10⁻¹ à 10⁻⁵ pour chaque échantillon, sauf pour l'échantillon PUV10 testé également non dilué) pendant 1 heure à 37°C. Puis les cellules ont été centrifugées et resuspendues à 10⁶ cellules par millilitre dans du milieu complet. Tous les 3 ou 4 jours, les cellules ont été comptées, réensemencées à 10⁶ cellules/ml et les surnageants conservés à -80°C. […]

[2] = system: VIH-1; test: Residual infectivity of treated HIV-1 on MT4 cells (cytopathic effect, p25 antigen, reverse transcriptase activity); format: cell-based; conditions: Human immunodeficiency virus 1, light or radiation study
Experimental: as §1, §2
as §3, with “9). […]” for “9).”

COc1c2ccoc2cc2oc(=O)ccc12 [5-MOP, 5-méthoxypsoralène]
réduction du pouvoir infectieux du virus ([1]; 5-MOP seul, no UVA (control treatment), overall conclusion): sans effet
titre ([1]; 5-MOP à 10 µg/ml et UVA (sample PUV10), activated human lymphocytes (PBL)): 100 UI/ml
log reduction at 10 µg/mL ([1]; 5-MOP à 10 µg/ml et UVA (sample PUV10, tested undiluted), activated human lymphocytes (PBL), read-out: inactivation virale): 3
log reduction at 10 µg/mL ([1]; 5-MOP à 10 µg/ml et UVA, overall conclusion, read-out: réduction du pouvoir infectieux du virus): ~3
log reduction at 10 µg/mL ([2]; 5-MOP seul à 10 µg/ml, no UVA (sample PUV6), versus control PUV9, read-out: perte d'infectivité): 0.5
log reduction at 10 µg/mL ([2]; 5-MOP à 10 µg/ml et UVA (sample PUV10), versus control PUV9, read-out: réduction du titre infectieux): 2.5
